In US9353100B2, “Macrocyclic serine protease inhibitors, pharmaceutical compositions thereof, and their use for treating HCV infections” (Idenix Pharmaceuticals LLC, priority 2011, dated 2016):
Like-named read-outs stand apart in the source and are kept apart here.

Experiments:
[1] = molecular target: T1, HCV NS3-NS4A protease 2a (Hepatitis C virus genotype 2a, UniProt Q99IB8); assay: HCV protease assay (FRET peptide), genotype 2a; type: biochemical; settings: genotype 2a protease; 60 min at 30° C.; read-out: IC50 Against HS3/4A 2a
T1 construct: HCV NS3-NS4A protease, which was produced according to the method of Taremi et al; made in house
Procedure: (§1) General procedure: Measurement of the inhibitory effect of compounds on HCV protease activity was performed using the HiLyte Fluor™ TR/QXL™ 610 FRET peptide from AnaSpec, Inc. (San Jose, Calif.) under conditions developed in-house using 2-3 nM HCV NS3-NS4A protease, which was produced according to the method of Taremi et al. (Protein Science, 1998, 7, 2143-2149). The compounds were tested at a variety of concentrations in assay buffer containing a final DMSO concentration of 5%. Reactions were allowed to proceed for 60 min at 30° C. and fluorescence measurements were recorded with a PerkinElmer Victor^3 V 1420 Multilabel Counter. The IC50 values were determined from the percent inhibition versus concentration data using a sigmoidal non-linear regression analysis based on four parameters with XLfit 4.1 software.

[2] = molecular target: T2, HCV NS3-NS4A protease 5a (Hepatitis C virus genotype 5a, UniProt O39928); assay: HCV protease assay (FRET peptide), genotype 5a; type: biochemical; settings: genotype 5a protease; 60 min at 30° C.; read-out: IC50 Against HS3/4A 5a
T2 construct: HCV NS3-NS4A protease, which was produced according to the method of Taremi et al; made in house
Procedure: as §1

[3] = system: HCV genotype 1b Con1 strain subgenomic luciferase replicon (Zluc) in Huh-7 cells; assay: HCV luciferase replicon assay, genotype 1b (Zluc); type: cell-based; settings: Hepatitis C virus, read-out: EC50 Against Relpicon 1b
Procedure: (§2) General procedure: The HCV luciferase replicon assay measures the ability of a test compound to inhibit HCV replication in cell culture after 3 days of treatment in a human hepatoma cell line (Huh-7) bearing a HCV replicon containing a luciferase-neomycin phosphotransferase fusion gene. The inhibition of HCV replication was measured by quantification of luciferase protein expression. Briefly, Huh-7 cells containing either the HCV genotype 1a H77 strain or genotype 1b Con1 strain subgenomic luciferase replicon (H1a-luc or Zluc, respectively) were grown in DMEM containing glucose, L-glutamine and sodium pyruvate, 10% fetal bovine serum (FBS), 100 IU/mL penicillin, 100 μg/mL streptomycin, 2 mM GlutaMAX, non-essential amino acids and 0.25 (H1a-luc) or 0.5 (Zluc) mg/mL G418. GlutaMAX was obtained from Invitrogen, Corp.; all other media reagents were obtained from Mediatech, Inc. For dose-response testing, the cells were seeded in 96-well plates at 1×10^4 (H1a-luc) or 7.5×10^3 (Zluc) cells/well in a volume of 50 μL and incubated at 37° C./5% CO2. Three hours after plating, 50 μL of ten 5-fold serial dilutions of compound were added, and cell cultures were incubated at 37° C./5% CO2 for 72 hours. In all cases, Huh-7 cells lacking the HCV replicon served as negative control. To assess luciferase expression, the media/compound was removed from the plates and ONE-glo Luciferase assay reagent (Promega) was added to each well. The assay plates were shaken for 3 minutes at room temperature and luciferase activity for each well was measured with a 1 sec read time on the Victor^3V multilabel counter using a 700 nm cut-off filter (Perkin Elmer). EC50 values were calculated from dose response curves from the resulting best-fit equations determined by Microsoft Excel and XLfit 4.1 software.

[4] = molecular target: T3, HCV NS3-NS4A protease 3a (Hepatitis C virus genotype 3a, UniProt Q81258); assay: HCV protease assay (FRET peptide), genotype 3a; type: biochemical
T3 construct: HCV NS3-NS4A protease, which was produced according to the method of Taremi et al; made in house
Procedure: as §1

[5] = system: genotype 1b HCV replicon in Zluc cells; assay: Genotype 1b HCV replicon luciferase assay with 10% FCS or 45% human serum; type: cell-based; settings: EC50 in presence of 45% HS divided by EC50 in presence of 10% FCS
Procedure: as §2
In Table 1, the values of FS with 45% HS were determined using the genotype 1b HCV replicon luciferase screening assay using Zluc cells, except that activity in the presence of 10% fetal calf serum (FCS) or 45% human serum (HS) was determined in parallel. The fold shift (FS) with 45% HS is the EC50 value in the presence of 45% HS divided by the EC50 value in the presence of 10% FCS. FS (1a/1b) is the EC50 value against genotype 1a HCV divided by the EC50 value against the genotype 1b in the replicon luciferase screening assay.

[6] = molecular target: T4, HCV NS3-NS4A protease 1a (Hepatitis C virus genotype 1a, UniProt P27958); assay: HCV protease assay (FRET peptide), genotype 1a; type: biochemical; settings: genotype 1a protease; 60 min at 30° C.; read-out: IC50 Against HS3/4A 1a
T4 construct: HCV NS3-NS4A protease, which was produced according to the method of Taremi et al; made in house
Procedure: as §1

[7] = molecular target: T5, HCV NS3-NS4A protease 4a (Hepatitis C virus genotype 4a, UniProt O39929); assay: HCV protease assay (FRET peptide), genotype 4a; type: biochemical; settings: genotype 4a protease; 60 min at 30° C.; read-out: IC50 Against HS3/4A 4a
T5 construct: HCV NS3-NS4A protease, which was produced according to the method of Taremi et al; made in house
Procedure: as §1

[8] = molecular target: T6, HCV NS3-NS4A protease 1b (Hepatitis C virus genotype 1b, UniProt Q9WMX2); assay: HCV protease assay (FRET peptide), genotype 1b; type: biochemical
T6 construct: HCV NS3-NS4A protease, which was produced according to the method of Taremi et al; made in house
Procedure: as §1

[9] = molecular target: T7, HCV NS3-NS4A protease 6a (Hepatitis C virus genotype 6a, UniProt O39927); assay: HCV protease assay (FRET peptide), genotype 6a; type: biochemical; settings: genotype 6a protease; 60 min at 30° C.; read-out: IC50 Against HS3/4A 6a
T7 construct: HCV NS3-NS4A protease, which was produced according to the method of Taremi et al; made in house
Procedure: as §1

[10] = system: HCV genotype 1a H77 strain subgenomic luciferase replicon (H1a-luc) in Huh-7 cells; assay: HCV luciferase replicon assay, genotype 1a (H1a-luc); type: cell-based; settings: for FS (1a/1b): EC50 against genotype 1a HCV divided by EC50 against genotype 1b, replicon luciferase assay; for EC50: Hepatitis C virus, read-out: EC50 Against Relpicon 1a
Procedure: as §2

[11] = Cytotoxicity evaluation, Cell Titer 96 AQueous One Solution; type: cell-based, human; settings: human; Zluc cells, cellular viability
Procedure: For cytotoxicity evaluation, Zluc cells were treated with compounds as described above and cellular viability was monitored using the Cell Titer 96 AQueous One Solution Cell Proliferation Assay (Promega). Plates were then read at 490 nm in a Victor^3V 1420 multilabel counter (Perkin Elmer) and CC50 concentrations were determined using Microsoft Excel and XLfit 4.1 software.

[12] = genotype 1b Con1 replicon, Huh-7 (Zluc), 72 hours
[13] = genotype 1a H77 replicon, Huh-7 (H1a-luc), 72 hours

T6 sequence (Q9WMX2 1658-1711): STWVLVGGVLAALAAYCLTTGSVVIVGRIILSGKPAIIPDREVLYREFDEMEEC
T6 sequence (Q9WMX2 1027-1208): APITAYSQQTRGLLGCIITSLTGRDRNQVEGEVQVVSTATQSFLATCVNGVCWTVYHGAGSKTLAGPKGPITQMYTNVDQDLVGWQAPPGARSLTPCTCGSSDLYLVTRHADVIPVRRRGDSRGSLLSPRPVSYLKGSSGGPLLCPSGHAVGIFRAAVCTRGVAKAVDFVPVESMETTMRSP
T3 sequence (Q81258 1664-1717): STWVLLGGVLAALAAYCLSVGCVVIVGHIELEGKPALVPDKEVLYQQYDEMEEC
T3 sequence (Q81258 1033-1214): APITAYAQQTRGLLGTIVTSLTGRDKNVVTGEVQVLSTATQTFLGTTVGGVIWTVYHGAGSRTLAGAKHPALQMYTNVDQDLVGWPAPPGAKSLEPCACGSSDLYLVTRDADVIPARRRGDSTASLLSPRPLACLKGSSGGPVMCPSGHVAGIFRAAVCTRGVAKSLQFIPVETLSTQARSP
T5 sequence (O39929 1658-1711): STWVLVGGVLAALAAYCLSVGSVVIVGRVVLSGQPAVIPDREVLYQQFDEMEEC
T5 sequence (O39929 1027-1208): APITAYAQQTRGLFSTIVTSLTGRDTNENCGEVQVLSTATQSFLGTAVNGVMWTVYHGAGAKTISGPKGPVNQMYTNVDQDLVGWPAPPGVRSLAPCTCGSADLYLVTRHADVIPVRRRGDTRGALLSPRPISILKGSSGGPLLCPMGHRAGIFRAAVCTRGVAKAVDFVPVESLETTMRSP
T2 sequence (O39928 1659-1712): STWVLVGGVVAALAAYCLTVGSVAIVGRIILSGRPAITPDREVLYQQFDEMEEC
T2 sequence (O39928 1028-1209): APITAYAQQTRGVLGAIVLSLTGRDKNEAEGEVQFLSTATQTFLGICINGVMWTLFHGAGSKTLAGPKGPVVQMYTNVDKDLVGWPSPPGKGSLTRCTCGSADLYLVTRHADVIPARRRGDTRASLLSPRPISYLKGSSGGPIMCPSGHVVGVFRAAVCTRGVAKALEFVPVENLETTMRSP
T1 sequence (Q99IB8 1662-1715): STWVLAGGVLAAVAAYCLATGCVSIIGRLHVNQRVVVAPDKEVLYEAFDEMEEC
T1 sequence (Q99IB8 1031-1212): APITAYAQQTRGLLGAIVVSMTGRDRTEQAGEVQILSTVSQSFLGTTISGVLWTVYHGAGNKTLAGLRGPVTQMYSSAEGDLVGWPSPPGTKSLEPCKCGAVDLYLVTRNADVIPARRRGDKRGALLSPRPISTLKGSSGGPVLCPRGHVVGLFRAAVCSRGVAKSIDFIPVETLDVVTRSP
T7 sequence (O39927 1031-1212): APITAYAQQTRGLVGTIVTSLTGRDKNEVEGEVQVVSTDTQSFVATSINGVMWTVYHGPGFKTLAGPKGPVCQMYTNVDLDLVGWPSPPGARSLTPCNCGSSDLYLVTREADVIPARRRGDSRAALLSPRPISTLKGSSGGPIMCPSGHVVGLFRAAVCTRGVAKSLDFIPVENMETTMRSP
T7 sequence (O39927 1662-1715): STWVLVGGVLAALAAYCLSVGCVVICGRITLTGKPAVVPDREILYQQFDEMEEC
T4 sequence (P27958 1027-1208): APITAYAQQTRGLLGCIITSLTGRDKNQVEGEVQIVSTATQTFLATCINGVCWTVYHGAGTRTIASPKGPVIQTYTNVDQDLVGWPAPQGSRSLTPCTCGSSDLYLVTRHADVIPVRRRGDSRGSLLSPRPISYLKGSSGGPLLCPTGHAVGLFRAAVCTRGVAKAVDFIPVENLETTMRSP
T4 sequence (P27958 1658-1711): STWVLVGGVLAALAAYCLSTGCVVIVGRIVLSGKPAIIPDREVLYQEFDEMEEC

SMILES | IC50 [1] [nM] | IC50 [2] [nM] | EC50 [3, 12] [nM] | IC50 [4] [nM] | FS with 45% HS [5] | IC50 [6] [nM] | IC50 [7] [nM] | IC50 [8] [nM] | IC50 [9] [nM] | FS (1a/1b) [10] | EC50 [10, 13] [nM] | CC50 [11] [nM] | EC50 ([3]; Huh-7, 72 h) [nM] | IC50 ([8]; read-out: IC50 Against HS3/4A 1b, genotype 1b protease, 60 min at 30° C.) [nM] | EC50 ([10]; Huh-7, 72 h) [nM]
COc1ccc2c(O[C@H]3CC[C@H]4C(=O)N(C)CCCC/C=C\[C@@H]5C[C@@]5(C(=O)NS(=O)(=O)C5(C)CC5)NC(=O)[C@@H]4C3)cc(-c3nc(C(F)(F)F)cs3)nc2c1C [Compound 17b, (1R,4R,6R,15R,18S)-1-methyl-cyclopropanesulfonic acid-{18-[7-methoxy-8-methyl-2-(4-trifluoromethyl-thiazol-2-yl)-quinolin-4-yloxy]-13-methyl-2,14-dioxo-3,13-diaza-tricyclo[13.4.0.0]nonadec-7-ene-4-carbonyl}-amide, reference compound] | < 10 | < 10 | < 10 | 100 to 1000 | 80 | < 10 | < 10 | < 10 | < 10 | 6 | < 10 | > 10000 |  |  | 
CN1CCCC/C=C\[C@@H]2C[C@@]2(C(=O)NS(=O)(=O)C2(C)CC2)NC(=O)[C@@H]2C[C@@H](Oc3nc(-c4ccc(Cl)cc4)sc3-c3ccccc3)CC[C@H]2C1=O [Compound D104] |  |  |  |  |  |  |  |  |  | 188 |  | > 10000 | 10 to 100 | 10 to 100 | > 10000
CN1CCCC/C=C\[C@@H]2C[C@@]2(C(=O)NS(=O)(=O)C2(C)CC2)NC(=O)[C@@H]2C[C@@H](Oc3nc(-c4cccc(C(F)(F)F)c4)sc3-c3ccccc3)CC[C@H]2C1=O [Compound D101, (1R,4R,6R,15R,18S)-1-methyl-cyclopropanesulfonic acid {13-methyl-2,14-dioxo-18-[5-phenyl-2-(3-trifluoromethyl-phenyl)-thiazol-4-yloxy]-3,13-diaza-tricyclo[13.4.0.0]nonadec-7-ene-4-carbonyl}-amide] |  |  | 10 to 100 | 10 to 100 |  |  |  | 10 to 100 |  | 147 | 1000 to 10000 | > 10000 |  |  | 
COc1ccc2c(O[C@H]3CC[C@H]4C(=O)N(C)CCCC/C=C\[C@@H]5C[C@@]5(C(=O)NS(=O)(=O)C5(C)CC5)NC(=O)[C@@H]4C3)cc(-c3nc(C(C)C)cs3)nc2c1C [Compound A101, (1R,4R,6R,15R,18S)-1-methyl-cyclopropanesulfonic acid {18-[2-(4-isopropyl-thiazol-2-yl)-7-methoxy-8-methyl-quinolin-4-yloxy]-13-methyl-2,14-dioxo-3,13-diaza-tricyclo[13.4.0.0]nonadec-7-ene-4-carbonyl}-amide] | 10 to 100 | 10 to 100 | < 10 | 100 to 1000 | >40 | < 10 | < 10 | < 10 | < 10 | 6 | 10 to 100 | > 10000 |  |  | 
CN1CCCC/C=C\[C@@H]2C[C@@]2(C(=O)NS(=O)(=O)C2(C)CC2)NC(=O)[C@@H]2C[C@@H](Oc3cc(-c4nc(C(F)(F)F)cs4)nc(-c4nc(C(F)(F)F)cs4)n3)CC[C@H]2C1=O [Compound C104, (1R,4R,6R,15R,18S)-1-methyl-cyclopropanesulfonic acid {18-[2,6-bis(4-trifluoromethyl-thiazol-2-yl)-pyrimidin-4-yloxy]-13-methyl-2,14-dioxo-3,13-diaza-tricyclo[13.4.0.0]nonadec-7-ene-4-carbonyl}-amide] |  |  | < 10 | 10 to 100 |  |  |  | < 10 |  | 5 | < 10 | > 10000 |  |  | 
Cc1csc(-c2cc(O[C@H]3CC[C@H]4C(=O)N(C)CCCC/C=C\[C@@H]5C[C@@]5(C(=O)NS(=O)(=O)C5(C)CC5)NC(=O)[C@@H]4C3)cc(-c3nc(C(F)(F)F)cs3)n2)n1 [Compound C102, (1R,4R,6R,15R,18S)-1-methyl-cyclopropanesulfonic acid {13-methyl-18-[2-(4-methyl-thiazol-2-yl)-6-(4-trifluoromethyl-thiazol-2-yl)-pyridin-4-yloxy]-2,14-dioxo-3,13-diaza-tricyclo[13.4.0.0]nonadec-7-ene-4-carbonyl}-amide] |  |  | < 10 | < 10 |  |  |  | < 10 |  | 5 | < 10 | > 10000 |  |  | 
CC(C)c1csc(-c2cc(O[C@H]3CC[C@H]4C(=O)N(C)CCCC/C=C\[C@@H]5C[C@@]5(C(=O)NS(=O)(=O)C5(C)CC5)NC(=O)[C@@H]4C3)nc(-c3nc(C(F)(F)F)cs3)n2)n1 [Compound C103, (1R,4R,6R,15R,18S)-1-methyl-cyclopropanesulfonic acid {18-[6-(4-isopropyl-thiazol-2-yl)-2-(4-trifluoromethyl-thiazol-2-yl)-pyrimidin-4-yloxy]-13-methyl-2,14-dioxo-3,13-diaza-tricyclo[13.4.0.0]nonadec-7-ene-4-carbonyl}-amide] |  |  | < 10 | < 10 |  |  |  | < 10 |  | 6 | < 10 | > 10000 |  |  | 
